{"source": "PubChem BioAssay AID2060622", "about": "(Molecular Pharmacology Branch, DTP, NCI, 2025);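 note: spheroids exposed to compounds for 7 days before readout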;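 for viability, T/C: 100% = DMSO vehicle control wells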", "test_system": "242566-281-R-J2-PDC complex spheroid viability", "experiment": "Anticancer human tumor 242566-281-R-J2-PDC patient-derived pancreatic carcinoma cell line growth inhibition [CLK]", "settings": "for IC50: curve of first compound; for viability, T/C: stronger effect = lower value", "summary_of_the_method": "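Patient-derived tumor cells grown as complex spheroids with HUVEC endothelial cells and mesenchymal stem cells, treated with drug combinations. Concentrations descend in half-log steps from near clinical Cmax, or from 10 microM if Cmax unknown.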"}
{"smiles": "CCc1c2c(nc3ccc(O)cc13)-c1cc3c(c(=O)n1C2)COC(=O)[C@]3(O)CC", "note": "+ CNC(=O)c1ccc(Nc2nc(OC3CCCC3)c3c(-c4ccc5nc(C)oc5c4)c[nH]c3n2)c(OC)c1", "values": [{"measurement": "IC50", "setting": "second compound 0.0316 µM", "value": 19.6, "unit": "nM"}, {"measurement": "IC50", "setting": "second compound 0.1 µM", "value": 12.6, "unit": "nM"}, {"measurement": "IC50", "setting": "second compound 0.316 µM", "value": 5.05, "unit": "nM"}, {"measurement": "IC50", "setting": "second compound 1 µM", "value": "< 3.16", "unit": "nM"}, {"measurement": "IC50", "setting": "second compound 3.16 µM", "value": "< 3.16", "unit": "nM"}, {"measurement": "IC50", "setting": "second compound 10 µM", "value": "< 3.16", "unit": "nM"}, {"measurement": "viability, T/C", "setting": "second compound 0.0316 µM, first compound 0.00316 µM", "value": 93.6, "unit": "%"}, {"measurement": "viability, T/C", "setting": "second compound 0.0316 µM, first compound 0.01 µM", "value": 70.8, "unit": "%"}, {"measurement": "viability, T/C", "setting": "second compound 0.0316 µM, first compound 0.0316 µM", "value": 35.2, "unit": "%"}, {"measurement": "viability, T/C", "setting": "second compound 0.0316 µM, first compound 0.1 µM", "value": 12.7, "unit": "%"}, {"measurement": "viability, T/C", "setting": "second compound 0.0316 µM, first compound 0.316 µM", "value": 5.19, "unit": "%"}, {"measurement": "viability, T/C", "setting": "second compound 0.0316 µM, first compound 1 µM", "value": 1.82, "unit": "%"}, {"measurement": "viability, T/C", "setting": "second compound 0.1 µM, first compound 0.00316 µM", "value": 76, "unit": "%"}, {"measurement": "viability, T/C", "setting": "second compound 0.1 µM, first compound 0.01 µM", "value": 58.4, "unit": "%"}, {"measurement": "viability, T/C", "setting": "second compound 0.1 µM, first compound 0.0316 µM", "value": 17.6, "unit": "%"}, {"measurement": "viability, T/C", "setting": "second compound 0.1 µM, first compound 0.1 µM", "value": 8.93, "unit": "%"}, {"measurement": "viability, T/C", "setting": "second compound 0.1 µM, first compound 0.316 µM", "value": 5.07, "unit": "%"}, {"measurement": "viability, T/C", "setting": "second compound 0.1 µM, first compound 1 µM", "value": 2.28, "unit": "%"}, {"measurement": "viability, T/C", "setting": "second compound 0.316 µM, first compound 0.00316 µM", "value": 69.5, "unit": "%"}, {"measurement": "viability, T/C", "setting": "second compound 0.316 µM, first compound 0.01 µM", "value": 21.2, "unit": "%"}, {"measurement": "viability, T/C", "setting": "second compound 0.316 µM, first compound 0.0316 µM", "value": 8.24, "unit": "%"}, {"measurement": "viability, T/C", "setting": "second compound 0.316 µM, first compound 0.1 µM", "value": 5.13, "unit": "%"}, {"measurement": "viability, T/C", "setting": "second compound 0.316 µM, first compound 0.316 µM", "value": 3.51, "unit": "%"}, {"measurement": "viability, T/C", "setting": "second compound 0.316 µM, first compound 1 µM", "value": 3.02, "unit": "%"}, {"measurement": "viability, T/C", "setting": "second compound 1 µM, first compound 0.00316 µM", "value": 29.4, "unit": "%"}, {"measurement": "viability, T/C", "setting": "second compound 1 µM, first compound 0.01 µM", "value": 9.85, "unit": "%"}, {"measurement": "viability, T/C", "setting": "second compound 1 µM, first compound 0.0316 µM", "value": 4.94, "unit": "%"}, {"measurement": "viability, T/C", "setting": "second compound 1 µM, first compound 0.1 µM", "value": 3.94, "unit": "%"}, {"measurement": "viability, T/C", "setting": "second compound 1 µM, first compound 0.316 µM", "value": 3.17, "unit": "%"}, {"measurement": "viability, T/C", "setting": "second compound 1 µM, first compound 1 µM", "value": 2.15, "unit": "%"}, {"measurement": "viability, T/C", "setting": "second compound 3.16 µM, first compound 0.00316 µM", "value": 23, "unit": "%"}, {"measurement": "viability, T/C", "setting": "second compound 3.16 µM, first compound 0.01 µM", "value": 7.75, "unit": "%"}, {"measurement": "viability, T/C", "setting": "second compound 3.16 µM, first compound 0.0316 µM", "value": 4.05, "unit": "%"}, {"measurement": "viability, T/C", "setting": "second compound 3.16 µM, first compound 0.1 µM", "value": 3.95, "unit": "%"}, {"measurement": "viability, T/C", "setting": "second compound 3.16 µM, first compound 0.316 µM", "value": 3.63, "unit": "%"}, {"measurement": "viability, T/C", "setting": "second compound 3.16 µM, first compound 1 µM", "value": 1.54, "unit": "%"}, {"measurement": "viability, T/C", "setting": "second compound 10 µM, first compound 0.00316 µM", "value": 18.5, "unit": "%"}, {"measurement": "viability, T/C", "setting": "second compound 10 µM, first compound 0.01 µM", "value": 7.14, "unit": "%"}, {"measurement": "viability, T/C", "setting": "second compound 10 µM, first compound 0.0316 µM", "value": 4.31, "unit": "%"}, {"measurement": "viability, T/C", "setting": "second compound 10 µM, first compound 0.1 µM", "value": 3.19, "unit": "%"}, {"measurement": "viability, T/C", "setting": "second compound 10 µM, first compound 0.316 µM", "value": 3.1, "unit": "%"}, {"measurement": "viability, T/C", "setting": "second compound 10 µM, first compound 1 µM", "value": 2.01, "unit": "%"}]}
